Results taken from PubChem BioAssay (NCI).
Several values for one entry are separate records, joined by “and”; a condition that tells them apart may be missing. Equal entries are not always repeated.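 Method: 48-hour compound exposure of cells in 96-well plates, five concentrations, linear interpolation of endpoints. GI50: concentration for 50% inhibition of growth. TGI is the concentration that stops growth completely.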

What was measured:
Test in all cases: NCI anticancer screen, dose series, 48 h
786-0 renal = test system: 786-0 renal
BT-549 breast = test system: BT-549 breast
CAKI-1 renal = test system: CAKI-1 renal
EKVX NSCLC = test system: EKVX NSCLC
HS 578T breast = test system: HS 578T breast
MCF7 breast = test system: MCF7 breast
SF-539 CNS = test system: SF-539 CNS
SK-MEL-2 melanoma = test system: SK-MEL-2 melanoma
SK-MEL-28 melanoma = test system: SK-MEL-28 melanoma
TK-10 renal = test system: TK-10 renal

SMILES	GI50 (786-0 renal)	TGI (786-0 renal)	GI50 (BT-549 breast)	TGI (BT-549 breast)	GI50 (CAKI-1 renal)	TGI (CAKI-1 renal)	GI50 (EKVX NSCLC)	TGI (EKVX NSCLC)	GI50 (HS 578T breast)	TGI (HS 578T breast)	GI50 (MCF7 breast)	TGI (MCF7 breast)	GI50 (SF-539 CNS)	TGI (SF-539 CNS)	GI50 (SK-MEL-2 melanoma)	TGI (SK-MEL-2 melanoma)	GI50 (SK-MEL-28 melanoma)	TGI (SK-MEL-28 melanoma)	GI50 (TK-10 renal)	TGI (TK-10 renal)
NS(=O)(=O)c1cccc(N=Cc2c(O)[nH]c3ccccc23)c1	> 25 µM	> 25 µM	> 25 µM	> 25 µM	13.9 µM	> 25 µM	> 25 µM	> 25 µM	> 25 µM	> 25 µM	> 25 µM	> 25 µM	> 25 µM	> 25 µM	> 25 µM	> 25 µM	> 25 µM	> 25 µM	> 17.7 µM	> 25 µM
c1cn2cc(-c3ccc4cn[nH]c4c3)nc(Nc3ccc(N4CCOCC4)cc3)c2n1	14.9 µM	32 µM	14.5 µM	48.1 µM	8.4 µM	44.3 µM	14.8 µM	41.8 µM	11.1 µM	63.8 µM	10.6 µM	25.1 µM	6.54 µM	23.1 µM	36.1 µM	> 100 µM	13 µM	40.5 µM	17.3 µM	37.8 µM
COc1cccc(/C=C/c2cnc3ccccc3n2)c1OC	–	> 100 µM	–	53.1 µM	–	> 100 µM	–	> 100 µM	–	68.5 µM	–	> 100 µM	–	> 100 µM	–	98.5 µM	–	> 100 µM	–	> 100 µM
CCN1c2ccccc2C(Cl)(c2ccc(N(C)C)cc2)c2ccccc21	10.7 µM	22.7 µM	12 µM	29 µM	14.5 µM	49.4 µM	7.98 µM	> 100 µM	4.89 µM	27.3 µM	10.3 µM	30.5 µM	15.5 µM	29.2 µM	–	–	7.96 µM	22.4 µM	11.1 µM	29.1 µM
Cc1cc(Cc2cc(C)cc(C(C)(C)C)c2O)c(O)c(C(C)(C)C)c1	11 µM	23 µM	11 µM	23.9 µM	2.36 µM	8.03 µM	2.81 µM	12.1 µM	11.2 µM	29.2 µM	3.47 µM	12.7 µM	13.3 µM	26 µM	15.1 µM	33.6 µM	12.9 µM	25.6 µM	8.22 µM	21.3 µM
c1ccc(-n2nnnc2-c2cccc3ccccc23)cc1	2.01 µM	53.2 µM	0.755 µM	> 61.2 µM	0.465 µM	> 100 µM	2.42 µM	> 100 µM	1.36 µM	> 100 µM	0.562 µM	> 100 µM	0.445 µM	3.43 µM	3.68 µM	> 63.1 µM	–	> 100 µM	1.45 µM	> 100 µM
CSc1ccc2c3c(n(C[C@H](O)CO)c(=O)c2c1)-c1ccccc1C3=O	2.52 µM	9.22 µM	2.77 µM	22.8 µM	1.11 µM	5.74 µM	3.89 µM	88 µM	15.8 µM	78.8 µM	0.423 µM	11 µM	2.36 µM	7.37 µM	16.6 µM	60.8 µM	4.46 µM	48.8 µM	4.76 µM	37.5 µM
COc1cc(/C=C2\CCC(CN(C)C)C2=O)ccc1OC(=O)c1ccccc1 (configuration not stated)	–	12.4 µM	–	30 µM	–	32.5 µM	–	28.1 µM	–	74.8 µM	–	21 µM	–	30.4 µM	–	32.7 µM	–	29.2 µM	–	23.5 µM
NC1=NC(c2ccc(Cl)cc2)C2=C(N1)/C(=C/c1ccc(Cl)cc1)CCC2 (configuration not stated)	9.42 µM	29.7 µM	2.74 µM	10.7 µM	13.6 µM	> 96.7 µM	13.3 µM	78.4 µM	7.97 µM	> 29.9 µM	3.62 µM	> 100 µM	19.9 µM	> 78 µM	37.7 µM	> 70.2 µM	17 µM	45.4 µM	27.4 µM	86.8 µM
COc1ccc(-n2c3c(c4c(CN5CCOCC5)c(O)ccc42)CCc2ccccc2C3=O)cc1	75.8 µM	> 100 µM	24.2 µM	> 100 µM	37.8 µM	> 100 µM	> 100 µM	> 100 µM	> 100 µM	> 100 µM	> 100 µM	> 100 µM	61 µM	> 100 µM	> 100 µM	> 100 µM	–	–	> 100 µM	> 100 µM
Cc1ccc2c(O)c(O)cc(NC(C)CCCN)c2n1 (configuration not stated)	> 100 µM	> 100 µM	32.1 µM	> 68.6 µM	21.8 µM	> 54.7 µM	25.3 µM	> 83.1 µM	13.9 µM	49.4 µM	2.65 µM	9.82 µM	3.83 µM	17.2 µM	> 45.9 µM	> 91.9 µM	27.3 µM	55.3 µM	> 100 µM	> 100 µM
CO[C@@H]1CC(=O)C2(CC(=O)O[C@@H]2/C=C(\C)CCC=C(C)C)C[C@@H]1O (some centres not stated)	0.761 µM	1.58 µM	0.492 µM	2.34 µM	0.87 µM	2.74 µM	1.42 µM	4.51 µM	4.74 µM	> 50 µM	0.199 µM	1.17 µM	0.502 µM	1.56 µM	1.39 µM	4.88 µM	0.83 µM	1.86 µM	1.26 µM	3.35 µM
C=CCC1(O)c2cccc(NCCO)c2C(=O)c2c(NCCO)cccc21	> 100 µM	> 100 µM	> 100 µM	> 100 µM	> 100 µM	> 100 µM	> 100 µM	> 100 µM	> 100 µM	> 100 µM	> 100 µM	> 100 µM	> 100 µM	> 100 µM	> 100 µM	> 100 µM	> 100 µM	> 100 µM	> 100 µM	> 100 µM
O=c1[nH]cnc2[nH]ncc12	400 µM	> 5000 µM	578 µM	> 5000 µM	97.2 µM	> 5000 µM	785 µM	> 5000 µM	2540 µM	> 5000 µM	259 µM	> 5000 µM	2010 µM	> 5000 µM	> 36.5 µM and 257 µM	> 5000 µM	2000 µM	> 5000 µM	> 94.6 µM and 258 µM	> 5000 µM
C#Cc1c(C(N)=O)ncn1C1OC(COP(=O)(OCc2ccc([N+](=O)[O-])o2)N(C)CCCCCl)C(O)C1O (configuration not stated)	36.3 µM	> 100 µM	37.8 µM	> 100 µM	47.9 µM	> 100 µM	82.9 µM	> 100 µM	> 100 µM	> 100 µM	20.1 µM	> 100 µM	19.7 µM	> 100 µM	89.9 µM	> 100 µM	27.3 µM	> 100 µM	43.1 µM	> 100 µM
O=Nc1ccc2ccccc2c1O	18.4 µM	32.8 µM	17.7 µM	31.6 µM	3.14 µM	19.3 µM	8.61 µM	22.6 µM	1.56 µM	5.07 µM	3.17 µM	12.5 µM	20.8 µM	37.2 µM	2.34 µM	5.29 µM	9.08 µM	22.2 µM	11.8 µM	24.5 µM
O=C(c1ccco1)c1c(C(F)(F)F)n([O-])c2ccccc2[n+]1=O	0.42 µM	1.83 µM	1.31 µM	3.81 µM	1.13 µM	3.94 µM	0.226 µM	0.741 µM	1.75 µM	13.1 µM	0.458 µM	7.36 µM	0.28 µM	0.712 µM	1.48 µM	6.19 µM	15.9 µM	50 µM	1.49 µM	6.7 µM
COc1ccc(C(=O)c2cc3c(OC)c(OC)c(OC)cc3[nH]2)cc1	11.9 µM	> 100 µM	8.51 µM	> 100 µM	–	–	5.14 µM	> 100 µM	4.25 µM	> 100 µM	1.32 µM	> 100 µM	4.76 µM	> 100 µM	–	–	8.79 µM	> 100 µM	39.6 µM	> 100 µM
Cc1cc(Nc2ncnc3ccc(NC4=NC(C)(C)CO4)cc23)ccc1Oc1ccn2ncnc2c1	20.1 µM and > 10 µM	> 81.5 µM	14.1 µM and > 10 µM	39.5 µM and > 10 µM	6.3 µM and > 10 µM	> 61.1 µM	5.02 µM	> 10 µM	15.2 µM and > 10 µM	62.4 µM and > 10 µM	13.7 µM and > 10 µM	31.5 µM and > 10 µM	15.6 µM and > 10 µM	31.2 µM and > 10 µM	20.1 µM and > 10 µM	46.4 µM and > 10 µM	13.2 µM and > 10 µM	29.3 µM and > 10 µM	3.84 µM and 2.76 µM	25.1 µM and > 10 µM
COc1ccc2nc3cc(Cl)ccc3c(NCCCNCCC(C)O)c2c1 (configuration not stated)	0.472 µM	1.94 µM	1.73 µM	4.13 µM	0.735 µM	3.43 µM	0.473 µM	2.41 µM	1.05 µM	3.62 µM	0.351 µM	1.72 µM	0.345 µM	1.49 µM	0.704 µM	2.25 µM	–	–	0.497 µM	2.94 µM
Cc1ccc2c(c1)NC(=O)CC(c1ccccc1)=N2	–	> 100 µM	–	> 100 µM	–	> 100 µM	–	> 100 µM	–	> 100 µM	–	> 100 µM	–	> 100 µM	–	> 100 µM	–	> 100 µM	–	> 100 µM
COc1ccccc1C#Cc1ccccc1C#CCCCCCC#Cc1ccccc1C#Cc1ccccc1OC	> 100 µM	> 100 µM	> 100 µM	> 100 µM	41.2 µM	> 100 µM	> 100 µM	> 100 µM	> 100 µM	> 100 µM	17.3 µM	> 100 µM	> 100 µM	> 100 µM	> 100 µM	> 100 µM	68.6 µM	> 100 µM	> 100 µM	> 100 µM
C=CC1CC12C(=O)C1OC2(C)C2C(=O)c3c(O)ccc(O)c3C(=O)C12 (configuration not stated)	1.94 µM	4.27 µM	10.2 µM	26.3 µM	0.402 µM	1.65 µM	7.46 µM	28.2 µM	7.44 µM	19.3 µM	2.2 µM	8.38 µM	4.5 µM	14.8 µM	14.5 µM	> 100 µM	4.94 µM	25.4 µM	2.96 µM	9.38 µM
CC(=O)O/N=C1/C(c2c(O)[nH]c3cc(Br)ccc23)=Nc2ccccc21	1.92 µM	8.06 µM	1.28 µM	3.5 µM	0.275 µM	2.04 µM	1.37 µM	2.95 µM	0.0698 µM	1.79 µM	1.93 µM	5.98 µM	0.818 µM	3.13 µM	1.28 µM	2.89 µM	2.22 µM	4.9 µM	2.09 µM	5.32 µM
C/C(=N\N=C(/[Se])N1CC2CCC(CC2)C1)c1ccccn1	–	2.52 µM	–	1.63 µM	–	1.95 µM	–	2.06 µM	–	7.77 µM	–	2.8 µM	–	1.2 µM	–	0.716 µM	–	1.03 µM	–	3.7 µM
COC(=O)[C@]12CC[C@@H](C)[C@H](C)[C@@H]1C1=CC[C@@H]3[C@@]4(C)C=C(O)C(=O)[C@@]5(C)COC(=C54)C[C@@]3(C)[C@]1(C)CC2	13.9 µM	29.7 µM	7.96 µM	25.8 µM	9.36 µM	26.7 µM	8.37 µM	26.5 µM	16.1 µM	49.9 µM	3.45 µM	12.3 µM	18.4 µM	44.3 µM	13.1 µM	29.6 µM	16.4 µM	38.9 µM	12.5 µM	29.8 µM
O=C(Nc1ccc(Cl)cc1)c1cc(-c2ccc(Cl)cc2)c2sc(=O)[nH]c2n1	2.64 µM	20.6 µM	2.08 µM	6.88 µM	1.95 µM	13.1 µM	1.63 µM	11.7 µM	3.04 µM	21.5 µM	1.78 µM	9.26 µM	2.43 µM	11.6 µM	1.18 µM	3.99 µM	1.57 µM	17.8 µM	–	–
